# Test results taken from PMC12503906, “Novel Pyrazolo [1,5‐a]−1,3,5‐Triazine Derivatives as CDK7 Inhibitors: Synthesis and Biological Insights in Pancreatic Ductal Adenocarcinoma Models” (Chemmedchem, 2025).
# Where two headings read alike, the source gives them in different places.
# Columns and labels:
# SUIT 2.28 = experiment: SRB chemosensitivity assay, SUIT 2.28 cells; assay type: cell-based; conditions: read-out: IC50 SUIT 2.28
# Description: Three lines of immortalized PDAC cells were selected as representative phenotypes: mesenchymal (PATU‐T), quasimesenchymal (PANC‐1), and an epithelial clone of SUIT 2 cells (SUIT 2.28). Cells were cultured in noncoated T‐75 and T‐25 flasks under adherent conditions, using 1× DMEM (Gibco, 41,966,029) for PATU‐T and RPMI (Gibco, 21,875,034) for SUIT 2.28 and PANC‐1, both supplemented with 10% NBCS and 1% P/S. Additional employed models were the PDAC3 cells, a primary cell culture, the PSCs, which were immortalized healthy pancreatic cells, and the PATU‐T‐GR, which was a gemcitabine resistant model of PATU‐T. PDAC3 and PSCs were cultivated using complete RPMI medium, while PATU‐T‐GR required complete DMEM medium. For seeding, cells were detached with Trypsin‐EDTA (0.05%) (GibcoTM, 25,300–096) and were consequently counted using the Automated Cell Counter (Luna‐II, Westburg). Cells were then plated on 96‐ or 6‐well plates depending on the planned experiment.
# The Sulforhodamine B (SRB) chemosensitivity assay was used to measure cytotoxicity and cell proliferation post drug treatment. At day 0, 3–6 × 10^3 cells were seeded in a 96‐well plate, depending on the cell line. At day 1, cells were attached and ready to be treated. For the calculation of the IC50, drug dilutions for the compounds 1b, 1c, 1d, 1e, 1g, 1hr, 1i, 1j, and LDC4297 (MedChemExpress, HY‐12,653) were prepared in dilution trays and eight different concentrations were included. These were added in triplicates to the cells, which were then incubated for […] at 37 °C in 5% CO2. During day 1, the control plate was fixed with 50% Trichloroacetic acid (TCA), as intended to be the baseline plate used for the normalization of the data. 72 h post‐treatment, the cells were fixed with TCA, and placed at 4 °C for about 2 h. The plates were then washed with distillated water and left to dry under the hood with ventilation. Subsequently, plates were stained with 0.4% SRB for 15 min and washed with 1% acetic acid to remove excess stain. Once dried again, the protein‐bound SRB was dissolved in 10 mM TRIS, and the plates were placed on a shaker for 10 min per plate. Lastly, the absorbance was measured at 492 nm with a spectrophotometer (Synergy HT, BioTek). The absorbance data obtained were normalized to the day 1 control, and the percentage of cell growth in relation to the control was calculated using the following formula. (1) %Cell growth=Mean OD treatment−Mean OD day0/Mean OD control−Mean OD day0×100
# The percentage of proliferation and their respective standard deviations were used to perform statistical analysis in GraphPad Prism software v 10 (GraphPad Software, San Diego, CA). Data were normalized to the day 0 control and to their own untreated 72 h control. These were transformed into logarithmic data, and log(inhibitor) versus response analysis was performed for obtaining the IC50 values per cell lines. Each experiment was conducted in triplicates.
# PATU‐T = experiment: Cell cycle analysis (FACS, PI staining), PATU‐T; assay type: cell-based; conditions: for percentage of cells in the G2‐M phase: untreated 18.4%; for percentage of cells in the S phase: untreated 32.5%; for percentage of cells in the G0‐G1 phase: untreated 49.1%
# Description: Modulation of the cell cycle was analyzed via flow cytometry. Cells (5 × 10^5 cells mL^− ^1) were seeded in 6‐well plates and were incubated at 37 °C overnight. Cells were treated with the compounds 1b and 1g at two different concentrations (1 × IC50 and 4 × IC50, according to each cell line) and were again incubated for 24 and 72 h. After treatment, cells were harvested with trypsin and were collected in specific fluorescence‐activated cell sorting (FACS) tubes. Cells were then washed with PBS and centrifuged at 1500 rpm for 5 min, in order to form a pellet. These pellets were fixed in 1 mL of ice‐cold 70% ethanol, added drop by drop during vortex, and placed in the refrigerator at 4 °C. After overnight incubation, the cells were washed twice with PBS, centrifuged (5 min at 1500 rpm), resuspended in 50 µL of RNase (100 µg mL^− ^1), and incubated for 30 min at 37 °C. Finally, 200 µL of propidium iodide solution (PI, 50 µg mL^− ^1) was added, and the cell distribution in the various phases of the cell cycle was analyzed via BD LSRFortessa Cell Analyzer. Data analysis was carried out with FACSdiva software (Becton Dickinson), while cell cycle distribution was determined using FCS express software.
# PDAC3 = experiment: Annexin V apoptosis assay, PDAC3; assay type: cell-based; conditions: 1 × IC50
# Description: In order to investigate the apoptotic properties of the compounds 1b and 1g, the Annexin V apoptosis assay was performed. Annexins are calcium‐dependent phospholipid binding proteins, which are able to bind to phosphatidylserine (PS). The externalization of PS residues on the outer membrane of apoptotic cells can be detected by Annexin V.
# For this assay, cells were seeded in a 96‐well plate at a concentration of 13.5 × 10^3 and 4.5 × 10^3 /well respectively for the 24 and 72 h experiments. The next day cells were treated with compounds 1b and 1g at 1 × IC50 and 4 × IC50 concentrations. The apoptosis assay was performed 24 and 72 h post‐treatment following the BD Pharmingen FITC Annexin V Apoptosis Detection Kit I (BD Biosciences, 556,547). The supernatant was aspirated, and cells were washed with phosphate‐buffered saline (PBS). Cells were consequently treated with binding buffer BBA + Annexin V (1:100) and were incubated in the dark at RT for 10 min. The supernatant was removed, and the cells were washed with BBA (1:10). Cells were then incubated with BBA + PI (1:100) and were immediately read with the spectrophotometer at ex. 485/ em. 535. Two different programs were used to read the Annexin V and the PI absorbance. Lastly, 100 µL of PBS were added to each well before being fixed with TCA. This was followed by the SRB assay to standardize fluorescence data according to cell count. Data were exported into GraphPad Prism 10 for statistical analysis.
# [1] = molecular target: T1, phosphorylated CDK7 (p‐CDK7) (Homo sapiens, UniProt P50613); experiment: Phospho‐CDK7 (Thr170) cell‐based ELISA, PDAC3; design: endogenous in cells; host or cells: PDAC3 primary cells; conditions: PDAC3, 4 × IC50, ELISA
# Description: (§1) To detect CDK7 and phospho‐CDK7 levels at Thr170 residue after treatment, an enzyme‐linked immunosorbent assay (Biomatik, Phospho‐CDK7 (Thr170) Colorimetric Cell‐Based ELISA Kit, Cat# EKA51274) was performed according to the manufacturer's protocols. […] The absorbance was read at 450 nm using a microplate reader.
# [2] = molecular target: T1, phosphorylated CDK7 (p‐CDK7); experiment: Phospho‐CDK7 (Thr170) cell‐based ELISA, SUIT 2.28; design: two PDAC preclinical models (SUIT 2.28 and PDAC3); endogenous in cells; host or cells: SUIT 2.28; conditions: SUIT 2.28, 4 × IC50, ELISA
# Description: as §1
# T1 sequence (P50613 2-346 limits assumed): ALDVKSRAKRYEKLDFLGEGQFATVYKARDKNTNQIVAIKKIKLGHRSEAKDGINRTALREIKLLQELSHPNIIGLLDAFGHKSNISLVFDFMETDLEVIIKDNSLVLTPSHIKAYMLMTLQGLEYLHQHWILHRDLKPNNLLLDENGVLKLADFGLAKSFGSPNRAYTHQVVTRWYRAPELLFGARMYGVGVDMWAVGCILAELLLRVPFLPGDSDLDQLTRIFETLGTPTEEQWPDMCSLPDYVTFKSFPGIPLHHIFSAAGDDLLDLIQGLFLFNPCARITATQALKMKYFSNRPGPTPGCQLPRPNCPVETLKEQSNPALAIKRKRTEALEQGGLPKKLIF
# T1 sequence (P51946 whole entry partner): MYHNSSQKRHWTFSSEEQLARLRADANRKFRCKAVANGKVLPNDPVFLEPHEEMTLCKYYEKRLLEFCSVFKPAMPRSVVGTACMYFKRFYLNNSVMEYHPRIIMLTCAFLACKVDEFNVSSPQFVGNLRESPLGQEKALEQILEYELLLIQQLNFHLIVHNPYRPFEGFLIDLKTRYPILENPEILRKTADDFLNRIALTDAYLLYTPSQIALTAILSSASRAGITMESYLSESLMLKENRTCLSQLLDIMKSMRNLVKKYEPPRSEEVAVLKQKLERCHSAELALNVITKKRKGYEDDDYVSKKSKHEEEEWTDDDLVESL
# T1 sequence (P51948 whole entry partner): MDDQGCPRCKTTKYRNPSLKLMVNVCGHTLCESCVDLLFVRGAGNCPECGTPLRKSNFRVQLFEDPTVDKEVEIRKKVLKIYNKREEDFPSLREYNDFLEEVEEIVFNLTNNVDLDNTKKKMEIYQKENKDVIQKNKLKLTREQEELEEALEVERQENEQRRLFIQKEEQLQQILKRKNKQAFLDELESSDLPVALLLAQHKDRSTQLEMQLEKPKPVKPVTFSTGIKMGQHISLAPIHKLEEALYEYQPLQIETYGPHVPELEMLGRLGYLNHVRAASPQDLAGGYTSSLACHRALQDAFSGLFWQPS
Structure (SMILES),"IC50 (SUIT 2.28; SRB, 72 h of treatment, average ± SEM, triplicate) [nM]","percentage of cells in the G2‐M phase (PATU‐T; 1 × IC50, 24 h) [%]","percentage of cells in the S phase (PATU‐T; 1 × IC50, 24 h) [%]","percentage of cells in the G0‐G1 phase (PATU‐T; 1 × IC50, 24 h) [%]","percentage of cells in the G2‐M phase (PATU‐T; 4 × IC50, 24 h) [%]","percentage of cells in the S phase (PATU‐T; 4 × IC50, 24 h) [%]","percentage of cells in the G0‐G1 phase (PATU‐T; 4 × IC50, 24 h) [%]","apoptotic index (PDAC3; PDAC3, 24 h)","apoptotic index (PDAC3; PDAC3, 72 h)",p‐CDK7 expression vs untreated [1],p‐CDK7 expression vs untreated [2],IC50 (SUIT 2.28; 72 h) [nM]
"Nc1ncnc2cc(-c3c[nH]c4ccc(Br)cc34)nn12 [Compound 1b, 7‐(5‐Bromo‐1H‐indol‐3‐yl)pyrazolo[1,5‐a][1,3,5]triazin‐4‐amine]",600 ± 100,14.9,49.6,35.5,10.1,60.0,30.0,significant increase in apoptotic index,continued to show a significant rise,decrease in p‐CDK7 expression,decrease in p‐CDK7 expression,–
"Cn1cc(-c2cc3ncnc(N)n3n2)c2cc(Br)ccc21 [Compound 1g, 7‐(5‐Bromo‐1‐methyl‐1H‐indol‐3‐yl)pyrazolo[1,5‐a][1,3,5]triazin‐4‐amine]",–,17.7,35.0,47.4,15.2,39.0,45.7,significant increase in apoptotic index,continued to show a significant rise,decrease in p‐CDK7 expression,decrease in p‐CDK7 expression,200 ± 100
